In patent US8759535B2, “Substituted fused imidazole derivatives, pharmaceutical compositions, and methods of use thereof” (High Point Pharmaceuticals, LLC, priority 2010, dated 2014):
Counter-ions that a name gives are not always drawn.

test system: HMOX1; assay: HMOX1 Protein Assay (immunostaining of HO-1 in NHLF cells, GE InCell 1000); assay type: cell-based; details: Homo sapiens, fold change above DMSO treated cells, 3 μM compound (asterisk), 16 h
In short: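 Fold induction of HO-1 over vehicle, normally at 5 μM compound (asterisk marks 3 μM), in 0.8% DMSO medium. Normal human lung fibroblasts were treated 16 h, then paraformaldehyde-fixed, anti-HO-1/Alexa 488 stained with Hoechst, and read by high-content imaging.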

SMILES	fold induction at 3 µM
Cn1c(Nc2nc3ccc(Cl)cc3s2)nc2cc(C(=O)NCCN3CCNCC3)ccc21 [Example 339, 2-(6-Chloro-benzothiazol-2-ylamino)-1-methyl-1H-benzoimidazole-5-carboxylic acid (2-piperazin-1-yl-ethyl)-amide hydrochloride]	10.6
CN1CCN(CCCNC(=O)c2ccc3c(c2)nc(Nc2nc4ccc(Cl)cc4s2)n3C)CC1 [Example 356, 2-(6-Chloro-benzothiazol-2-ylamino)-1-methyl-1H-benzoimidazole-5-carboxylic acid [3-(4-methyl-piperazin-1-yl)-propyl]-amide]	19
CN(C)C(=O)CCNC(=O)c1ccc2c(c1)nc(Nc1nc3ccc(C(F)(F)F)cc3s1)n2C [Example 372, 1-Methyl-2-(6-trifluoromethyl-benzothiazol-2-ylamino)-1H-benzoimidazole-5-carboxylic acid (2-dimethylcarbamoyl-ethyl)-amide]	25.5
C[C@H](NC(=O)c1ccc2c(c1)nc(Nc1nc3ccc(Cl)cc3s1)n2C)C(=O)N1CCOCC1 [Example 465, 2-(6-Chloro-benzothiazol-2-ylamino)-1-methyl-1H-benzoimidazole-5-carboxylic acid ((S)-1-methyl-2-morpholin-4-yl-2-oxo-ethyl)-amide]	20.4

same assay, conditions: Homo sapiens, fold change above DMSO treated cells, 5 μM compound, 16 h

SMILES	fold induction at 5 µM
CCNC(=O)c1ccc2c(c1)nc(Nc1nc3cc(F)c(F)cc3s1)n2C [Example 35, 2-(5,6-Difluoro-benzothiazol-2-ylamino)-1-methyl-1H-benzoimidazole-5-carboxylic acid ethylamide]	12.4
Cn1c(Nc2nc3ccc(OC(F)(F)F)cc3s2)nc2cc(C(=O)NCCNC(=O)OC(C)(C)C)ccc21 [Example 103, (2-{[1-Methyl-2-(6-trifluoromethoxy-benzothiazol-2-ylamino)-1H-benzoimidazole-5-carbonyl]-amino}-ethyl)-carbamic acid tert-butyl ester]	9
Cn1c(Nc2nc3ccc(OC(F)(F)F)cc3s2)nc2cc(C(=O)N[C@H]3CC[C@H](O)CC3)ccc21 [Example 52, 1-Methyl-2-(6-trifluoromethoxy-benzothiazol-2-ylamino)-1H-benzoimidazole-5-carboxylic acid (trans-4-hydroxy-cyclohexyl)-amide]	10
Cn1c(Nc2nc3ccc(OC(F)(F)F)cc3s2)nc2cc(C(=O)NCC(=O)N3CCOCC3)ccc21 [Example 138, 1-Methyl-2-(6-trifluoromethoxy-benzothiazol-2-ylamino)-1H-benzimidazole-5-carboxylic acid (2-morpholin-4-yl-2-oxo-ethyl)-amide]	11
Cn1c(Nc2nc3ccc(OC(F)(F)F)cc3s2)nc2cc(C(=O)NCC(=O)O)ccc21 [Example 83, {[1-Methyl-2-(6-trifluoromethoxy-benzothiazol-2-ylamino)-1H-benzoimidazole-5-carbonyl]-amino}-acetic acid]	1.25
CCOCCNC(=O)c1ccc2c(c1)nc(Nc1nc3ccc(OC(F)(F)F)cc3s1)n2CC [Example 157, 1-Ethyl-2-(6-trifluoromethoxy-benzothiazol-2-ylamino)-1H-benzoimidazole-5-carboxylic acid (2-ethoxy-ethyl)-amide]	22.1
Cn1c(Nc2nc3ccc(OC(F)(F)F)cc3s2)nc2cc(C(=O)NCCOCCCF)ccc21 [Example 247, 1-Methyl-2-(6-trifluoromethoxy-benzothiazol-2-ylamino)-1H-benzoimidazole-5-carboxylic acid [2-(3-fluoro-propoxy)-ethyl]-amide]	28.3
Cn1c(Nc2nc3ccc(OC(F)(F)F)cc3s2)nc2cc(C(=O)NC[C@H]3CC[C@H](O)CC3)ccc21 [Example 232, 1-Methyl-2-(6-trifluoromethoxy-benzothiazol-2-ylamino)-1H-benzoimidazole-5-carboxylic acid (trans-4-hydroxy-cyclohexylmethyl)-amide]	33
Cn1c(Nc2nc3ccc(OC(F)(F)F)cc3s2)nc2cc(C(=O)NCCC3CCC(O)CC3)ccc21 (stereo not drawn) [Example 253, 1-Methyl-2-(6-trifluoromethoxy-benzothiazol-2-ylamino)-1H-benzoimidazole-5-carboxylic acid [2-(4-hydroxy-cyclohexyl)-ethyl]-amide]	26.6
CNC(=O)c1ccc2c(c1)nc(Nc1nc3ccc(OC(F)(F)F)cc3s1)n2CC(C)C [Example 164, 1-Isobutyl-2-(6-trifluoromethoxy-benzothiazol-2-ylamino)-1H-benzoimidazole-5-carboxylic acid methylamide]	20.5
CN(C)CC(=O)N1CC[C@@H](NC(=O)c2ccc3c(c2)nc(Nc2nc4ccc(Cl)cc4s2)n3C)C1 [Example 308, 2-(6-Chloro-benzothiazol-2-ylamino)-1-methyl-1H-benzoimidazole-5-carboxylic acid [(R)-1-(2-dimethylamino-acetyl)-pyrrolidin-3-yl]-amide]	24.3
CN(C)C(=O)CNC(=O)c1ccc2c(c1)nc(Nc1nc3ccc(OC(F)(F)F)cc3s1)n2C [Example 80, 1-Methyl-2-(6-trifluoromethoxy-benzothiazol-2-ylamino)-1H-benzoimidazole-5-carboxylic acid dimethylcarbamoylmethyl-amide]	23.2
CCOCCNC(=O)c1ccc2c(c1)nc(Nc1nc3ccc(OC(F)(F)F)cc3s1)n2CCOC [Example 169, 1-(2-Methoxy-ethyl)-2-(6-trifluoromethoxy-benzothiazol-2-ylamino)-1H-benzoimidazole-5-carboxylic acid (2-ethoxy-ethyl)-amide]	24.4
COc1cc2c(cc1C(=O)NCC(=O)N(C)C)nc(Nc1nc3ccc(OC(F)(F)F)cc3s1)n2C [Example 63, 6-Methoxy-1-methyl-2-(6-trifluoromethoxy-benzothiazol-2-ylamino)-1H-benzoimidazole-5-carboxylic acid dimethylcarbamoylmethyl-amide]	9.8
Cn1c(Nc2nc3ccc(OC(F)(F)F)cc3s2)nc2cc(C(=O)NCC(=O)N3CCC(C(F)(F)F)CC3)ccc21 [Example 449, 1-Methyl-2-(6-trifluoromethoxy-benzothiazol-2-ylamino)-1H-benzoimidazole-5-carboxylic acid [2-oxo-2-(4-trifluoromethyl-piperidin-1-yl)-ethyl]-amide]	23
CNC(=O)c1ccc2c(c1)nc(Nc1nc3ccc(F)cc3s1)n2C [Example 124, 2-(6-Fluoro-benzothiazol-2-ylamino)-1-methyl-1H-benzimidazole-5-carboxylic acid methylamide]	22.9
Cn1c(Nc2nc3ccc(OC(F)(F)F)cc3s2)nc2cc(C(=O)NCCC3CCOCC3)ccc21 [Example 264, 1-Methyl-2-(6-trifluoromethoxy-benzothiazol-2-ylamino)-1H-benzoimidazole-5-carboxylic acid [2-(tetrahydro-pyran-4-yl)-ethyl]-amide]	22.9
CN(C)CCOCCNC(=O)c1ccc2c(c1)nc(Nc1nc3ccc(Cl)cc3s1)n2C [Example 274, 2-(6-Chloro-benzothiazol-2-ylamino)-1-methyl-1H-benzoimidazole-5-carboxylic acid [2-(2-dimethylamino-ethoxy)-ethyl]-amide]	65.9
CCn1c(Nc2nc3ccc(OC(F)(F)F)cc3s2)nc2cc(C(=O)NCC(=O)N(C)C)ccc21 [Example 186, 1-Ethyl-2-(6-trifluoromethoxy-benzothiazol-2-ylamino)-1H-benzoimidazole-5-carboxylic acid dimethylcarbamoylmethyl-amide]	20.2
Cn1c(Nc2nc3ccc(OC(F)(F)F)cc3s2)nc2cc(C(=O)NCCOCCCO)ccc21 [Example 246, 1-Methyl-2-(6-trifluoromethoxy-benzothiazol-2-ylamino)-1H-benzoimidazole-5-carboxylic acid [2-(3-hydroxy-propoxy)-ethyl]-amide]	76.5
CCN(CC)c1cc2c(cc1C(=O)O)nc(Nc1nc3ccc(OC(F)(F)F)cc3s1)n2C [Example 70, 6-Diethylamino-1-methyl-2-(6-trifluoromethoxy-benzothiazol-2-ylamino)-1H-benzoimidazole-5-carboxylic acid]	21.4
Cn1c(Nc2nc3ccc(F)cc3s2)nc2cc(C(=O)O)ccc21 [Example 118, 2-(6-Fluoro-benzothiazol-2-ylamino)-1-methyl-1H-benzimidazole-5-carboxylic acid]	14.1
COCCCNC(=O)c1ccc2c(c1)nc(Nc1nc3ccc(OC(F)(F)F)cc3s1)n2C [Example 19, 1-Methyl-2-(6-trifluoromethoxy-benzothiazol-2-ylamino)-1H-benzoimidazole-5-carboxylic acid (3-methoxy-propyl)-amide]	21.1
CN(C)C(=O)C(C)(C)NC(=O)c1ccc2c(c1)nc(Nc1nc3ccc(OC(F)(F)F)cc3s1)n2C [Example 151, 1-Methyl-2-(6-trifluoromethoxy-benzothiazol-2-ylamino)-1H-benzimidazole-5-carboxylic acid (1-dimethylcarbamoyl-1-methyl-ethyl)-amide]	41.3
COCCNC(=O)c1cnc2c(c1)nc(Nc1nc3ccc(OC(F)(F)F)cc3s1)n2C [Example 73, 3-Methyl-2-(6-trifluoromethoxy-benzothiazol-2-ylamino)-3H-imidazo[4,5-b]pyridine-6-carboxylic acid (2-methoxy-ethyl)-amide]	20.6
CCN(CC)c1cc2c(cc1C(=O)OC)nc(Nc1nc3ccc(OC(F)(F)F)cc3s1)n2C [Example 69, 6-Diethylamino-1-methyl-2-(6-trifluoromethoxy-benzothiazol-2-ylamino)-1H-benzoimidazole-5-carboxylic acid methyl ester]	4.7
